Laboratory results taken from patent US20160159940A1, “POLYDENDRONS” (The Univeristy of Liverpool, priority 2013, published 2016).

Legend:
Caco-2 cells [1] = assay: MTT assay of Caco-2 cells (cytotoxicity); assay type: cell-based
Experimental: (§1) Caco-2 cells were purchased from American Type Culture Collection (ATCC, USA) and maintained in Dulbecco's Modified Eagles Medium (DMEM) supplemented with 15% filtered sterile foetal bovine serum. Cells were incubated at 37° C. and 5% CO2 and were routinely sub-cultured every 4 days when 90% confluent. Cell count and viability was determined using a Countess automated cell counter (Invitrogen).
(§2) Caco-2 cells were seeded at a density of 1.0×10^4 cells/100 μl in DMEM supplemented with 15% FBS into each well of a 96 well plate (Nunclon, Denmark) and incubated at 37° C. and 5% CO2. Cells from 4 separate flasks of biological replicates of each cell type were used (N1-4) to improve statistical power. Media was then aspirated from […] and replaced with media containing each polydendron or aqueous Nile Red solution at an equivalent 1 μM Nile Red concentration then diluted 1:1 in media across the plate up to column 11. Column 12 served as a negative control and consisted of media and untreated cells. Following polydendron addition, the plates were incubated for 24 hours or 120 hours at 37° C., 5% CO2 prior to assessment of cytotoxicity.
Following incubation of treated plates for 24 h or 120 h, 20 μl of 5 mg ml^−1 MTT reagent was added to each well and incubated for 2 hours. Subsequently, 100 μL MTT lysis buffer (50% N—N-Dimethylformamide in water containing 20% SDS, 2.5% glacial acetic acid and 2.5% hydrochloric acid, pH 4.7) was added to each well to lyse overnight at 37° C., 5% CO2. Following incubation the absorbance of each well was read using a Tecan Genosis plate reader at 560 nm (Tecan Magellan, Austria).

Caco-2 cells [2] = assay: ATP assay (CellTiter-Glo) of Caco-2 cells (cytotoxicity); assay type: cell-based
Experimental: as §1, §2
Following incubation of treated plates for 24 h or 120 h, cells were equilibrated to room temperature for approximately 30 minutes. All but 20 μl of media was removed from each well and 20 μl CellTiter-Glo® (Promega, UK) reagent was added. All reagents were made fresh and in accordance with the manufacturer's instructions. Plates were put on an orbital shaker for 10 minutes to mix contents and allow for stabilisation of luminescence signal. Luminescence was then measured using a Tecan Genios plate reader (Tecan Magellan, Austria).

[3] = Transcellular permeability of Nile Red across Caco-2 cell monolayers; assay type: in vitro ADME; conditions: human, Caco-2, 1 hour incubation, 1 μM Nile Red, mean of biological triplicate
Experimental: (§3) Transwells were seeded with 3.5×10^4 cells per well and propagated to a monolayer over a 21 day period, during which media in the apical and basolateral wells was changed every other day. Trans-epithelial electrical resistance (TEER) values were monitored until they were >1300Ω. 1 μM of Nile Red polydendron or 1 μM aqueous Nile Red was added to the apical chamber of 4 wells and the basolateral chamber of 4 wells to quantify transport in both Apical to Basolateral (A>B) and Basolateral to Apical (B>A) direction and sampled on an hourly basis over a 4 h time period. Apparent permeability coefficient was then determined by the amount of compound transported over time using the equation: […]
(§4) where (dQ/dt) is the amount per time (nmol·sec^−1), A is the surface area of the filter and C0 is the starting concentration of the donor chamber (1 μM).
(§5) 100 μl of each collected sample was mixed with 900 μl acetone, vortexed, sonicated for 6 minutes and centrifuged at 13300 rpm for 3 minutes. The supernatant was completely dried in a vacuum centrifuge at 30° C. until the dry solid sample was left. This was reconstituted in 150 μl acetonitrile, transferred to a 96-well black walled, flat bottomed plate and measured for fluorescence intensity excitation wavelength 480 nm, emission wavelength 560 nm using a Tecan Genios plate reader (Tecan Magellan, Austria).

Caco-2 cell monolayers = assay: as above; assay type: in vitro ADME; conditions: 1 hour incubation
Experimental: as §3, §4, §5

[4] = 24 hour incubation, range of concentrations investigated
[5] = 120 hour incubation, range of concentrations investigated

Papp A→B at 1 h, 1 μM ([3]; read-out: Papp Apical > Basolateral): 23.7 ×10⁻⁶ cm/s | Papp B→A at 1 h, 1 μM ([3]; read-out: Papp Basolateral > Apical): 6.38 ×10⁻⁶ cm/s | A > B/B > A ratio (Caco-2 cell monolayers): 3.7140
Structure (SMILES): CCN(CC)c1ccc2nc3c4ccccc4c(=O)cc-3oc2c1 [aqueous Nile Red, Nile red]
metabolic turnover of Caco-2 cells compared to untreated cells (Caco-2 cells [1]; [4]): did not affect metabolic turnover | EC50 (Caco-2 cells [1]; 120 hour incubation, FIG. 7): No EC50 | viability of Caco-2 cells (Caco-2 cells [1]; [5]): did not affect the viability | EC50 (Caco-2 cells [1]; Homo sapiens, Caco-2, 24 hour incubation, FIG. 6, read-out: EC50): 1160 nM | ATP presence compared to untreated cells (Caco-2 cells [2]; [4]): not affected | EC50 (Caco-2 cells [2]; 120 hour incubation, FIG. 9): No EC50 | viability compared to untreated cells (Caco-2 cells [2]; [5]): not affected | EC50 (Caco-2 cells [2]; Homo sapiens, Caco-2, 24 hour incubation, FIG. 8, read-out: EC50): 1950 nM
